Assay results published in the supplement of paper PMC10307832.

What was measured:
Assay in all cases: relative viability (nuclei count vs DMSO), 5 days (fraction); higher = more cells survive
PC-14 = tested on: PC-14
How it was run: (§1)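 Relative viability equals treated-well nuclei counts divided by vehicle-well nuclei counts. Counts came from 4× images of lung cancer cell lines grown in 1536-well plates for 5 days after pin-tool dosing on the day after seeding. Dosing used one drug alone or a fixed anchor-drug dose plus five library-drug doses (not always all listed) in √10 steps, and values are medians of duplicate plates.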

LOU-NH91 = tested on: LOU-NH91
How it was run: as §1

HARA = tested on: HARA
How it was run: as §1

NCI-H1437 = tested on: NCI-H1437
How it was run: as §1

ABC-1 = tested on: ABC-1
How it was run: as §1

NCI-H1666 = tested on: NCI-H1666
How it was run: as §1

COR-L 105 = tested on: COR-L 105
How it was run: as §1

NCI-H661 = tested on: NCI-H661
How it was run: as §1

NCI-H1650 = tested on: NCI-H1650
How it was run: as §1

NCI-H2170 = tested on: NCI-H2170
How it was run: as §1

NCI-H727 = tested on: NCI-H727
How it was run: as §1

CAL-12T = tested on: CAL-12T
How it was run: as §1

201T = tested on: 201T
How it was run: as §1

BEN = tested on: BEN
How it was run: as §1

HCC-366 = tested on: HCC-366
How it was run: as §1

LK-2 = tested on: LK-2
How it was run: as §1

EKVX = tested on: EKVX
How it was run: as §1

NCI-H2009 = tested on: NCI-H2009
How it was run: as §1

NCI-H3122 = tested on: NCI-H3122
How it was run: as §1

NCI-H441 = tested on: NCI-H441
How it was run: as §1

SW 900 = tested on: SW 900
How it was run: as §1

NCI-H460 = tested on: NCI-H460
How it was run: as §1

CC(=O)O[C@@]12CO[C@@H]1C[C@H](O)[C@@]1(C)C(=O)[C@H](O)C3=C(C)[C@@H](OC(=O)[C@H](O)[C@@H](NC(=O)OC(C)(C)C)c4ccccc4)C[C@@](O)([C@@H](OC(=O)c4ccccc4)[C@H]21)C3(C)C [Docetaxel] + O=C(c1cc(Cc2n[nH]c(=O)c3ccccc23)ccc1F)N1CCN(C(=O)C2CC2)CC1 [Olaparib] (partner 8 µM)
relative viability (PC-14; first compound 0.0002 µM): 0.276 | relative viability (PC-14; first compound 0.000632 µM): 0.164 | relative viability (PC-14; first compound 0.002 µM): 0.0642 | relative viability (PC-14; first compound 0.006325 µM): 0.0438 | relative viability (PC-14; first compound 0.02 µM): 0.0274 | relative viability (LOU-NH91; first compound 0.0002 µM): 0.915 | relative viability (LOU-NH91; first compound 0.000632 µM): 0.839 | relative viability (LOU-NH91; first compound 0.002 µM): 0.567 | relative viability (LOU-NH91; first compound 0.006325 µM): 0.396 | relative viability (LOU-NH91; first compound 0.02 µM): 0.315 | relative viability (HARA; first compound 0.0002 µM): 0.858 | relative viability (HARA; first compound 0.000632 µM): 0.335 | relative viability (HARA; first compound 0.002 µM): 0.161 | relative viability (HARA; first compound 0.006325 µM): 0.21 | relative viability (HARA; first compound 0.02 µM): 0.0824 | relative viability (NCI-H1437; first compound 0.0002 µM): 0.613 | relative viability (NCI-H1437; first compound 0.000632 µM): 0.442 | relative viability (NCI-H1437; first compound 0.002 µM): 0.384 | relative viability (NCI-H1437; first compound 0.006325 µM): 0.269 | relative viability (NCI-H1437; first compound 0.02 µM): 0.177 | relative viability (ABC-1; first compound 0.0002 µM): 0.649 | relative viability (ABC-1; first compound 0.000632 µM): 0.827 | relative viability (ABC-1; first compound 0.002 µM): 0.564 | relative viability (ABC-1; first compound 0.006325 µM): 0.535 | relative viability (ABC-1; first compound 0.02 µM): 0.338 | relative viability (NCI-H1666; first compound 0.0002 µM): 0.786 | relative viability (NCI-H1666; first compound 0.000632 µM): 0.673 | relative viability (NCI-H1666; first compound 0.002 µM): 0.721 | relative viability (NCI-H1666; first compound 0.006325 µM): 0.703 | relative viability (NCI-H1666; first compound 0.02 µM): 0.573 | relative viability (COR-L 105; first compound 0.0002 µM): 0.8 | relative viability (COR-L 105; first compound 0.000632 µM): 0.591 | relative viability (COR-L 105; first compound 0.002 µM): 0.461 | relative viability (COR-L 105; first compound 0.006325 µM): 0.539 | relative viability (COR-L 105; first compound 0.02 µM): 0.331 | relative viability (NCI-H661; first compound 0.0002 µM): 0.738 | relative viability (NCI-H661; first compound 0.000632 µM): 0.701 | relative viability (NCI-H661; first compound 0.002 µM): 0.592 | relative viability (NCI-H661; first compound 0.006325 µM): 0.434 | relative viability (NCI-H661; first compound 0.02 µM): 0.406 | relative viability (NCI-H1650; first compound 0.0002 µM): 0.64 | relative viability (NCI-H1650; first compound 0.000632 µM): 0.545 | relative viability (NCI-H1650; first compound 0.002 µM): 0.218 | relative viability (NCI-H1650; first compound 0.006325 µM): 0.241 | relative viability (NCI-H1650; first compound 0.02 µM): 0.162 | relative viability (NCI-H2170; first compound 0.0002 µM): 0.611 | relative viability (NCI-H2170; first compound 0.000632 µM): 0.475 | relative viability (NCI-H2170; first compound 0.002 µM): 0.342 | relative viability (NCI-H2170; first compound 0.006325 µM): 0.136 | relative viability (NCI-H2170; first compound 0.02 µM): 0.126 | relative viability (NCI-H727; first compound 0.0002 µM): 0.664 | relative viability (NCI-H727; first compound 0.000632 µM): 0.526 | relative viability (NCI-H727; first compound 0.002 µM): 0.682 | relative viability (NCI-H727; first compound 0.006325 µM): 0.645 | relative viability (NCI-H727; first compound 0.02 µM): 0.524 | relative viability (CAL-12T; first compound 0.0002 µM): 0.591 | relative viability (CAL-12T; first compound 0.000632 µM): 0.392 | relative viability (CAL-12T; first compound 0.002 µM): 0.253 | relative viability (CAL-12T; first compound 0.006325 µM): 0.263 | relative viability (CAL-12T; first compound 0.02 µM): 0.173 | relative viability (201T; first compound 0.0002 µM): 0.821 | relative viability (201T; first compound 0.000632 µM): 0.774 | relative viability (201T; first compound 0.002 µM): 0.637 | relative viability (201T; first compound 0.006325 µM): 0.432 | relative viability (201T; first compound 0.02 µM): 0.267 | relative viability (BEN; first compound 0.0002 µM): 1.11 | relative viability (BEN; first compound 0.000632 µM): 1.06 | relative viability (BEN; first compound 0.002 µM): 0.514 | relative viability (BEN; first compound 0.006325 µM): 0.357 | relative viability (BEN; first compound 0.02 µM): 0.275 | relative viability (HCC-366; first compound 0.0002 µM): 0.245 | relative viability (HCC-366; first compound 0.000632 µM): 0.115 | relative viability (HCC-366; first compound 0.002 µM): 0.0486 | relative viability (HCC-366; first compound 0.006325 µM): 0.0381 | relative viability (HCC-366; first compound 0.02 µM): 0.0133 | relative viability (LK-2; first compound 0.0002 µM): 0.599 | relative viability (LK-2; first compound 0.000632 µM): 0.249 | relative viability (LK-2; first compound 0.002 µM): 0.156 | relative viability (LK-2; first compound 0.006325 µM): 0.118 | relative viability (LK-2; first compound 0.02 µM): 0.0792 | relative viability (EKVX; first compound 0.0002 µM): 0.839 | relative viability (EKVX; first compound 0.000632 µM): 0.557 | relative viability (EKVX; first compound 0.002 µM): 0.387 | relative viability (EKVX; first compound 0.006325 µM): 0.316 | relative viability (EKVX; first compound 0.02 µM): 0.167 | relative viability (NCI-H2009; first compound 0.0002 µM): 0.606 | relative viability (NCI-H2009; first compound 0.000632 µM): 0.79 | relative viability (NCI-H2009; first compound 0.002 µM): 0.562 | relative viability (NCI-H2009; first compound 0.006325 µM): 0.397 | relative viability (NCI-H2009; first compound 0.02 µM): 0.149 | relative viability (NCI-H3122; first compound 0.0002 µM): 0.658 | relative viability (NCI-H3122; first compound 0.000632 µM): 0.623 | relative viability (NCI-H3122; first compound 0.002 µM): 0.521 | relative viability (NCI-H3122; first compound 0.006325 µM): 0.202 | relative viability (NCI-H3122; first compound 0.02 µM): 0.129 | relative viability (NCI-H441; first compound 0.0002 µM): 0.446 | relative viability (NCI-H441; first compound 0.000632 µM): 0.324 | relative viability (NCI-H441; first compound 0.002 µM): 0.223 | relative viability (NCI-H441; first compound 0.006325 µM): 0.158 | relative viability (NCI-H441; first compound 0.02 µM): 0.161 | relative viability (SW 900; first compound 0.0002 µM): 0.817 | relative viability (SW 900; first compound 0.000632 µM): 0.353 | relative viability (SW 900; first compound 0.002 µM): 0.281 | relative viability (SW 900; first compound 0.006325 µM): 0.266 | relative viability (SW 900; first compound 0.02 µM): 0.172 | relative viability (NCI-H460; first compound 0.0002 µM): 0.373 | relative viability (NCI-H460; first compound 0.000632 µM): 0.31 | relative viability (NCI-H460; first compound 0.002 µM): 0.0608 | relative viability (NCI-H460; first compound 0.006325 µM): 0.0428 | relative viability (NCI-H460; first compound 0.02 µM): 0.0276
